Assay results: PMC9516332 (Frontiers in Oncology, 2022)

How the values were obtained:
Test in all cases: Kinase panel profiling at 1 µmol/L (MSA or IMAP), percentage inhibition
Format in all cases: biochemical
[1] = molecular target: panel of 255 wild-type kinases (Homo sapiens, UniProt P22694); details: kinase PKACβ; 1 µmol/L single concentration; read-out: %-inhibition at 1 µmol/L, PKACβ
[2] = molecular target: panel of 255 wild-type kinases (Homo sapiens, UniProt Q08345); details: kinase DDR1; 1 µmol/L single concentration; read-out: %-inhibition at 1 µmol/L, DDR1
[3] = molecular target: panel of 255 wild-type kinases (Homo sapiens, UniProt P17948); details: kinase FLT1; 1 µmol/L single concentration; read-out: %-inhibition at 1 µmol/L, FLT1
[4] = molecular target: panel of 255 wild-type kinases (Homo sapiens, UniProt Q96RG2); details: PASK; 1 µmol/L single concentration; read-out: %-inhibition, PASK
[5] = molecular target: T1, panel of 255 wild-type kinases (Homo sapiens, UniProt P42681); details: kinase TXK; 1 µmol/L single concentration; read-out: %-inhibition at 1 µmol/L, TXK
T1 sequence (P42681 1-527): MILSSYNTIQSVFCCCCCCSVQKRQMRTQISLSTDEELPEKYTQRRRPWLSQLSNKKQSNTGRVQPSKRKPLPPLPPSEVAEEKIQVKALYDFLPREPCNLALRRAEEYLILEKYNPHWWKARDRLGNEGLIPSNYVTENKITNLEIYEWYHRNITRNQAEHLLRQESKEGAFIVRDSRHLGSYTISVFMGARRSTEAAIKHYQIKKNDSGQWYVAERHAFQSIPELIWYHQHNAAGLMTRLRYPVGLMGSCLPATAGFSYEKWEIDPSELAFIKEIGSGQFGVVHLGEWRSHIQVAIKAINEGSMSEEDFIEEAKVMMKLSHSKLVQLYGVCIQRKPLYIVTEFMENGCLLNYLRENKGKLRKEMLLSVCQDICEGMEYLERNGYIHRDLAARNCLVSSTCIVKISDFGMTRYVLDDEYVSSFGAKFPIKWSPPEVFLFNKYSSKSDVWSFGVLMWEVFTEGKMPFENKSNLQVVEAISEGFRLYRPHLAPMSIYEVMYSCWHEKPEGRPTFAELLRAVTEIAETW

[6] = molecular target: panel of 255 wild-type kinases (Homo sapiens, UniProt P06213); details: kinase INSR; 1 µmol/L single concentration; read-out: %-inhibition at 1 µmol/L, INSR
[7] = molecular target: T2, panel of 255 wild-type kinases (Homo sapiens, UniProt Q9UL54); details: kinase TAOK2; 1 µmol/L single concentration; read-out: %-inhibition at 1 µmol/L, TAOK2
T2 sequence (Q9UL54 1-1235): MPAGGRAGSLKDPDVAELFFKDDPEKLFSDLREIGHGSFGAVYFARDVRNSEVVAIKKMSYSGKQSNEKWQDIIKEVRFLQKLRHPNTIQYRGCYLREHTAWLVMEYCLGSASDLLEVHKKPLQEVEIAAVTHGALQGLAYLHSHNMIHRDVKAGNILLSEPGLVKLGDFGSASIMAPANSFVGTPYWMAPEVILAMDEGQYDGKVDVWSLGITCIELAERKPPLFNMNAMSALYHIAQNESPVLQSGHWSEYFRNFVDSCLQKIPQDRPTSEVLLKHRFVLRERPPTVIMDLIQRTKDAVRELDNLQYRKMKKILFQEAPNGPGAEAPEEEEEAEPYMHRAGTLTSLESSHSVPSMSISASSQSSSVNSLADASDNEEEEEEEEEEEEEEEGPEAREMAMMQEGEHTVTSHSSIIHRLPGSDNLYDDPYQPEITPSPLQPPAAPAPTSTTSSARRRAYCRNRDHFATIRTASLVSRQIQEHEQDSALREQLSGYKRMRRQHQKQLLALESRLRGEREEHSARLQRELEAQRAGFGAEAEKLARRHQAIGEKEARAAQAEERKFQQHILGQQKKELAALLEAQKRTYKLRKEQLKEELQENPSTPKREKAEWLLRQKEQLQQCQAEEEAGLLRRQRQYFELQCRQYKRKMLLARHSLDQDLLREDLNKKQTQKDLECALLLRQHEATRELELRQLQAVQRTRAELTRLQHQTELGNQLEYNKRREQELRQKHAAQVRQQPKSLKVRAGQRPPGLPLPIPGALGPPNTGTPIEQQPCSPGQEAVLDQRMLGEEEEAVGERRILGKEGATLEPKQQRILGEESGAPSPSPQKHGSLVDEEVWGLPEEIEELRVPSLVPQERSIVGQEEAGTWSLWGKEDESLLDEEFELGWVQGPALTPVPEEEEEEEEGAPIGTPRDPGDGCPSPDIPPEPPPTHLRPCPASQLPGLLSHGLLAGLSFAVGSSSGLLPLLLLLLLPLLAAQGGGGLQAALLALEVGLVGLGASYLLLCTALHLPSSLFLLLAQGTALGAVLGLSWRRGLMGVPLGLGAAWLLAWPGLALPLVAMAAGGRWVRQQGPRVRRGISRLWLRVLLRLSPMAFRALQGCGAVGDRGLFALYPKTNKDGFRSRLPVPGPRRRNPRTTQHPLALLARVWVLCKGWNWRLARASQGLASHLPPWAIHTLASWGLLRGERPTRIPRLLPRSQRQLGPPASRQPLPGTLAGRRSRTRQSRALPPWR

[8] = molecular target: panel of 255 wild-type kinases (Homo sapiens, UniProt Q9Y463); details: kinase DYRK1B; 1 µmol/L single concentration; read-out: %-inhibition at 1 µmol/L, DYRK1B
[9] = molecular target: T3, panel of 255 wild-type kinases (Homo sapiens, UniProt Q9BXA7); details: kinase TSSK1; 1 µmol/L single concentration; read-out: %-inhibition at 1 µmol/L, TSSK1
T3 sequence (Q9BXA7 1-367): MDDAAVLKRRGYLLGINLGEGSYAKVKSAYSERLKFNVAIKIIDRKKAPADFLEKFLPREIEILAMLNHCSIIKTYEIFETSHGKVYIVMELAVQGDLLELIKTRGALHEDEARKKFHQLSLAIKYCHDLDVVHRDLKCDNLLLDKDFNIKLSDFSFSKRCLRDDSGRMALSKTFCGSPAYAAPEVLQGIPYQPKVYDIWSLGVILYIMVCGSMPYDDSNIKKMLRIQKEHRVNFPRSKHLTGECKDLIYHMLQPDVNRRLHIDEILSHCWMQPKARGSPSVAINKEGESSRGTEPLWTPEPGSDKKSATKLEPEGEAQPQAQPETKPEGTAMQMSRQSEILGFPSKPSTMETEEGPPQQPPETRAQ

SMILES | inhibition at 1 µM [1] [%] | inhibition at 1 µM [2] [%] | inhibition at 1 µM [3] [%] | inhibition at 1 µM [4] [%] | inhibition at 1 µM [5] [%] | inhibition at 1 µM [6] [%] | inhibition at 1 µM [7] [%] | inhibition at 1 µM [8] [%] | inhibition at 1 µM [9] [%]
CO[C@]1(C(=O)N[C@@H](C)c2ccc(-n3cc(F)cn3)nc2)CC[C@H](c2nc(C)cc(Nc3cc(C)[nH]n3)n2)CC1 [pralsetinib] | 20 | 98 | 96 | -2.38 | 41 | 10 | 14 | -12 | 4.54
CCn1c(=O)c(-c2cc(NC(=O)Nc3ccccc3)c(F)cc2Br)cc2cnc(NC)cc21 [ripretinib] | -3.65 | 90 | 91 | -1 | 11 | 1.55 | 89 | -2.38 | -4.3
COc1ccc(CN2C3CC2CN(c2ccc(-c4cc(OCC(C)(C)O)cn5ncc(C#N)c45)cn2)C3)cn1 [selpercatinib] | -4.64 | 89 | 98 | -2.29 | 54 | 1.51 | 5.33 | 1.42 | 45
Cn1cnc2c(F)c(Nc3ccc(Br)cc3Cl)c(C(=O)NOCCO)cc21 [selumetinib] | -21 | 4.73 | 4.22 | -2 | 3.19 | 3 | 3.77 | -3.17 | 0.947
Cc1cc(Nc2ncnc3ccc(NC4=NC(C)(C)CO4)cc23)ccc1Oc1ccn2ncnc2c1 [tucatinib] | -15 | 9 | 3.22 | 0.181 | 5 | 3 | 5 | -1.89 | 2.58
C=CC(=O)N1CCC([C@@H]2CCNc3c(C(N)=O)c(-c4ccc(Oc5ccccc5)cc4)nn32)CC1 [zanubrutinib] | -8 | 3 | 2.22 | -2.55 | 89 | 4 | 4 | 5.39 | 2.13
